Data reported in the NIST ThermoML archive (doi:10.1021/acs.jced.5b00599).

Details: Gas, Oscillating disk viscometry

O [water]
Details	viscosity [mPa·s]
297.33 K, Mass density=0.092 kg/m3	0.00963
297.76 K, Mass density=0.023 kg/m3	0.009649
298.16 K, Mass density=0.092 kg/m3	0.009654
298.69 K, Mass density=0.129 kg/m3	0.009676
298.99 K, Mass density=0.129 kg/m3	0.009697
299.38 K, Mass density=0.018 kg/m3	0.009722
300.35 K, Mass density=0.018 kg/m3	0.009746
301.55 K, Mass density=0.023 kg/m3	0.009792
310.44 K, Mass density=0.129 kg/m3	0.01008
311.12 K, Mass density=0.023 kg/m3	0.01011
311.13 K, Mass density=0.092 kg/m3	0.0101
311.52 K, Mass density=0.018 kg/m3	0.01013
325.16 K, Mass density=0.092 kg/m3	0.01059
325.62 K, Mass density=0.023 kg/m3	0.01063
326.81 K, Mass density=0.129 kg/m3	0.01064
327.19 K, Mass density=0.018 kg/m3	0.01067
338.27 K, Mass density=0.129 kg/m3	0.01104
338.47 K, Mass density=0.023 kg/m3	0.01107
339.05 K, Mass density=0.018 kg/m3	0.01109
339.49 K, Mass density=0.092 kg/m3	0.01109
352.03 K, Mass density=0.092 kg/m3	0.01154
352.69 K, Mass density=0.018 kg/m3	0.01158
352.79 K, Mass density=0.129 kg/m3	0.01156
352.84 K, Mass density=0.023 kg/m3	0.01158
365.89 K, Mass density=0.092 kg/m3	0.01204
366.46 K, Mass density=0.129 kg/m3	0.01205
366.97 K, Mass density=0.018 kg/m3	0.01208
367.44 K, Mass density=0.023 kg/m3	0.0121
380.14 K, Mass density=0.092 kg/m3	0.01257
380.24 K, Mass density=0.092 kg/m3	0.01257
380.61 K, Mass density=0.129 kg/m3	0.01257
380.86 K, Mass density=0.018 kg/m3	0.0126
380.91 K, Mass density=0.129 kg/m3	0.0126
381.03 K, Mass density=0.023 kg/m3	0.0126
382.98 K, Mass density=0.023 kg/m3	0.01267
384.22 K, Mass density=0.018 kg/m3	0.01273
394.56 K, Mass density=0.092 kg/m3	0.01311
394.75 K, Mass density=0.129 kg/m3	0.0131
394.87 K, Mass density=0.018 kg/m3	0.01313
395.16 K, Mass density=0.023 kg/m3	0.01312
408.37 K, Mass density=0.092 kg/m3	0.01363
408.69 K, Mass density=0.129 kg/m3	0.01365
409.25 K, Mass density=0.023 kg/m3	0.01365
410.22 K, Mass density=0.018 kg/m3	0.0137
422.63 K, Mass density=0.092 kg/m3	0.01418
423.17 K, Mass density=0.129 kg/m3	0.01421
423.35 K, Mass density=0.023 kg/m3	0.01419
423.87 K, Mass density=0.018 kg/m3	0.01423
437.65 K, Mass density=0.092 kg/m3	0.01479
437.93 K, Mass density=0.129 kg/m3	0.01479
438.48 K, Mass density=0.023 kg/m3	0.01478
438.75 K, Mass density=0.018 kg/m3	0.01482
466.44 K, Mass density=0.092 kg/m3	0.01596
466.96 K, Mass density=0.129 kg/m3	0.01598
468.21 K, Mass density=0.018 kg/m3	0.01601
468.74 K, Mass density=0.023 kg/m3	0.01598
496.27 K, Mass density=0.023 kg/m3	0.0171
496.94 K, Mass density=0.092 kg/m3	0.01723
497.01 K, Mass density=0.129 kg/m3	0.01727
497.08 K, Mass density=0.018 kg/m3	0.01723
